Laboratory results taken from patent US20210293769A1, “METHOD FOR CULTURING CANCER TISSUE OR TISSUE ANALOGOUS TO CANCER TISSUE” (Chugai Seiyaku Kabushiki Kaisha, priority 2018, published 2021).

Tests used:
Type in all cases: cell-based, human
PLR123 organoids [1] = test: Regrowth of SN-38-treated PLR123 organoids on re-culture, CellTiter-Glo 3D Cell Viability Assay; settings: BSO 200 μM and/or AUR 200 nM added upon re-culture of SN-38-treated organoids; n=4, FIG. 13
Experimental: Specifically, 7-ethyl-10-hydroxycamptothecin (SN-38, Cat #H0165, Merck) was added to the organoids (day 10) prepared in Example 1-1 at a concentration of 300 nM and culture was carried out for three days (SN-38 treatment). After culturing, organoids were recovered by decomposing Matrigel with Dispase I (Cat #386-02271, Fujifilm Wako Pure Chemical Corporation), washed with Cellotion (Cat #CB051, Nippon Zenyaku Kogyo Co., Ltd.), and the washed organoids were suspended in a new Matrigel and dispensed at 20 μL/well into a 96-well plate in which 20-30 μL/well of Matrigel was gelled beforehand. By centrifuging immediately after dispensing, the organoids were aligned on a single plane, making it easier to observe under a microscope. After gelling Matrigel at 37° C., 200 μL/well of an organoid culture medium (Example 1-1) was added and re-culture was carried out at 37° C. in a 5% CO2 environment.
In order to confirm the contribution of GPX1 and GPX2 towards the regrowth of organoids, the gamma-glutamylcysteine synthetase inhibitor L-buthionine-sulfoximine (BSO, Cat #B2515, Merck, 200 μM) and the thioredoxin reductase inhibitor auranofin (AUR, Cat #A6733, Merck, 200 nM) were added upon re-culture in the re-culture method of Example 2-1, and cell proliferation was measured by CellTiter-Glo 3D Cell Viability Assay (FIG. 12).

GPX1 [2] = test: RNA-seq gene expression analysis of SN-38-treated organoids; settings: organoids day 10 treated with 300 nM SN-38 for three days vs untreated organoids; n=3, FIG. 10
Experimental: (§1) The gene expression of the organoids prepared in Example 1-1 was analyzed by RNA-seq. First, total RNA was prepared from 2D-cultured cells and 3D-cultured organoids (day 10) cultured in Example 1-1 using TRIzol Reagent (Cat #15596018, Thermo Fisher Scientific). The quality of the purified total RNA was verified through RNA integrity number (RIN) measured using an Agilent 2100 Bioanalyzer (Agilent) to confirm that the RIN was greater than 9. Next, cDNAs were synthesized and amplified from 1 ng of total RNA using the SMART-Seq v4 Ultra Low Input RNA Kit for Sequencing (Takara Bio). Subsequently, a library was prepared using the Nextera XT DNA Library Prep kit (Illumina), and sequenced at 75 bp paired-end reads using the NextSeq500 system (Illumina). The obtained sequence information was mapped to NCBI RefSeq transcript sequence using RSEM software (v1.2.31), and the gene expression level was calculated by FPKM (Fragments Per Kilobase of exon model per Million mapped reads).
(§2) Gene expression analysis was performed on the organoids of Example 1-1 (day 10) and the SN-38-treated organoids of Example 2-1 using RNA-seq in the same manner as in Example 1-2 (n=3).

GPX2 [3] = test: as above; settings: organoids day 10 treated with 300 nM SN-38 for three days vs untreated organoids; n=3, FIG. 10
Experimental: as §1, §2

GPX1 [4] = test: IHC protein expression analysis of organoids; settings: immediately after 300 nM SN-38 treatment; expression continued on day 2 of regrowth; FIG. 11
Experimental: (§3) The protein expression of GPX1 (Uniprot ID: P07203, Refseq accession No. NP_000572) and GPX2 (Uniprot ID: P18283, Refseq accession No. NP_002074) was analyzed by IHC. Using an anti-GPX1 antibody (Cat #ab22604, Abcam, 0.5 ng/mL) and an anti-GPX2 antibody (Cat #ab137431, Abcam, 0.5 ng/mL) with the Envision system (Cat #K4003, Agilent) and peroxidase-diaminobenzidine reaction, the organoids of Example 1-1 (day 10), the SN-38-treated organoids of Example 2-1, and the regrowing organoids of Example 2-1 (day 2, day 6) were each stained. The results of IHC analysis confirmed that the expression of GPX1 and GPX2 increased immediately after the treatment with SN-38 and expression continued even on day 2 of regrowth (FIG. 11).

GPX2 [5] = test: IHC protein expression analysis of organoids; settings: immediately after 300 nM SN-38 treatment; expression continued on day 2 of regrowth; FIG. 11
Experimental: as §3

PLR123 organoids [6] = test: Pathological (structural) analysis of organoids after SN-38 treatment; settings: after 300 nM SN-38 for three days; new luminal structure formed from surviving cells during re-culture; FIG. 7
Experimental: In order to observe the structure of the organoids produced in Example 1-1 in detail, a pathological analysis was performed according to a previous report (J. Toxicol. Pathol. 31, 81-85 (2018)). Specifically, after removing the culture supernatant from each of the three-dimensional cultures (day 7, day 10, day 12, and day 13), 4% paraformaldehyde/phosphate buffer (Cat #09154-14, Nacalai Tesque) was added, and fixation was carried out at room temperature for 30 minutes. Matrigel was decomposed by pipetting, and organoids were collected in a centrifuge tube and washed. Subsequently, the organoids were suspended in a warmed 2% aqueous agarose solution (agarose, Type IX, Cat #A5030, Merck), centrifuged, and then cooled on ice to gel the agarose. This was treated by the AMeX method and embedded in paraffin. Paraffin blocks were sliced and stained with hematoxylin and eosin (HE) or Alcian blue-Periodic acid-Schiff (AB-PAS) by standard methods. Further, anti-LGR5 antibody (clone 2U2E-2 (Stem Cells, 30, 2631-2644 (2012))) and anti-Ki-67 antibody (clone MIB-1, Cat #M7240, Agilent) were used for immunofluorescent staining of the paraffin block sections. […]
The structure of the regrowing organoids was analyzed by pathological analysis in the same manner as in Example 1-3. […]

LGR5 = test: FACS measurement of LGR5 expression in organoids; settings: organoids immediately after SN-38 treatment; FIG. 8
Experimental: […] […] […] The resulting cells were reacted with 2 μg/mL anti-LGR5 antibody (clone 2L36 (Stem Cells, 30, 2631-2644 (2012))) or control mouse IgG2a antibody (clone MG2a-53, Cat #401502, BioLegend) at 4° C. for 1 hour, and then reacted with a PE-labeled secondary antibody (Cat #P-21139, Thermo Fisher Scientific) for 30 minutes at 4° C. Then dead cells were stained with 7-AAD Viability Dye (Cat #A07704, Beckman Coulter) and measured with a flow cytometer (BD FACSAria III, BD Biosciences). PBS containing 2% fetal bovine serum and 0.1% NaN3 was used as the buffer. Data were analyzed using BD FACSDiva (version 8.0.1, BD Biosciences) and FlowJo (version 7.6.5, BD Biosciences).

Compound	organoid regrowth (cell proliferation) (PLR123 organoids [1])	expression of GPX1 (RNA-seq) (GPX1 [2])	expression of GPX2 (RNA-seq) (GPX2 [3])	protein expression of GPX1 (IHC) (GPX1 [4])	protein expression of GPX2 (IHC) (GPX2 [5])	organoid structure (PLR123 organoids [6])	LGR5 expression (FACS) (LGR5)
CC(=O)OC[C@H]1O[C@@H]([S-])[C@H](OC(C)=O)[C@@H](OC(C)=O)[C@@H]1OC(C)=O.CCP(CC)CC.[Au+] [AUR, auranofin]	suppressed only when both inhibitors were used in combination						
CCc1c2c(nc3ccc(O)cc13)-c1cc3c(c(=O)n1C2)COC(=O)[C@]3(O)CC [SN-38, 7-ethyl-10-hydroxycamptothecin]		increased by two-fold or more	increased by two-fold or more	increased	increased	once disrupted	almost no LGR5 expression was observed
CCCCS(=N)(=O)CCC(N)C(=O)O [BSO, L-buthionine-sulfoximine]	suppressed only when both inhibitors were used in combination						
